This passage reports fluorescence lifetime results from the Deep4Chem optical property database.

This data set is described as follows: solvent given as SMILES.

SMILES strings stand for the structures. “And” between values parts separate entries of the source, which are not always exact repeats. Identical values can stand only once.

For the setting “in Cc1ccccc1”, `CCCCCCCCC1(CCCCCCCC)c2ccccc2-c2ccc(-c3nnc(-c4cccc(-n5c6ccc(C(C)(C)C)cc6c6cc(C(C)(C)C)ccc65)c4)o3)cc21` returned a fluorescence lifetime of 7.65 ns.
With `COc1ccc(C#Cc2c3ccccc3c3n2[B-](F)(F)[N+]2=C(C)C=C(C)C2=C3)cc1`, the fluorescence lifetime was found to be 5.2 ns (in CCCCCC), 4.65 ns (in CCCCCCCCO), 4.93 ns (in CCOC(C)=O) and 4.41 ns (in CN(C)C=O).
For `CC(C)(C)c1ccc(C2=c3sc(-c4ccc(C(C)(C)C)cc4)c(-c4ccc(C(C)(C)C)cc4)c3=[N+]3C2=Nc2c(-c4ccc(C(C)(C)C)cc4)c4sc(-c5ccc(C(C)(C)C)cc5)c(-c5ccc(C(C)(C)C)cc5)c4n2[B-]3(F)F)cc1`, where the note is “in ClC(Cl)Cl”, the fluorescence lifetime was 1.18 ns.
Take `COC(=O)c1cc(=O)n(C)c2cc(-c3ccc(Oc4ccccc4)cc3)sc12`: the fluorescence lifetime (in ClCCl) is 2.83 ns.
Take `C[Si](C)(C)c1ccc2ccc3cccc4ccc1c2c34`: the fluorescence lifetime by setting is: (in CCCCCC) 66.9 ns; (in CO) 175 ns; (in ClCCl) 94.2 ns.
`COc1ccc(-c2csc(/C(C#N)=C/c3ccncc3)n2)cc1` gave a fluorescence lifetime (in CC#N) of 1.92 ns.
`C(#Cc1ccc(C#Cc2ccccc2)cc1)c1ccccc1` came in with a fluorescence lifetime (in ClC(Cl)Cl) of 2.57 ns.
For the molecule `O=C1c2ccccc2-c2c(-c3ccccc3)c(-c3ccccc3)c(-c3ccccc3)c3cccc1c23`, the fluorescence lifetime by setting is: (in CC#N) 0.6 ns; (in CO) 9.2 ns.
For the molecule `C(=C\c1cc(/C=C/c2ccc(-n3c4ccccc4c4ccccc43)cc2)cc(/C=C/c2ccc(-n3c4ccccc4c4ccccc43)cc2)c1)/c1ccc(-n2c3ccccc3c3ccccc32)cc1`, the fluorescence lifetime (in C1CCOC1) stood at 4.56 ns, the fluorescence lifetime (in CC#N) stood at 3.84 ns, the fluorescence lifetime (in Cc1ccccc1) was 3.41 ns and the fluorescence lifetime (in ClCCl) worked out at 3.39 ns.
As to `CN(C)c1ccc(C2=Nc3sc4cc(F)ccc4[n+]3[B-](F)(F)O2)cc1`, the fluorescence lifetime (in Cc1ccccc1) came to 1.68 ns.
For the setting “in C1CCCCC1”, `C[Si](C)(C)c1ccc(C#N)c2ccccc12` returned a fluorescence lifetime of 11 ns.
Where the note is “in C1CCOC1”, `CC(C)(C)c1ccc(/C=C/c2ccc(N(c3ccc(/C=C/c4ccc(C(C)(C)C)cc4)cc3)c3ccc(-c4nc5ccccc5nc4-c4ccc(N(c5ccc(/C=C/c6ccc(C(C)(C)C)cc6)cc5)c5ccc(/C=C/c6ccc(C(C)(C)C)cc6)cc5)cc4)cc3)cc2)cc1` yielded a fluorescence lifetime of 2.3 ns.
Consider `COC(=O)c1ccc(C2=C(/C=C/c3ccc(OC)cc3)O[B-](F)(F)[O+]=C2/C=C/c2ccc(OC)cc2)cc1`, for which, where the note is “in ClCCl”, the fluorescence lifetime was 1.34 ns.
Turning to `Nc1ccc2c(c1)C(=O)NC2=O`, the fluorescence lifetime (in C1CCOC1) is 12.4 ns and 20.8 ns; the fluorescence lifetime (in C1COCCO1) was 15 ns; the fluorescence lifetime (in CC#N) is 14 ns; the fluorescence lifetime (in CCO) came out at 10 ns; the fluorescence lifetime (in CN(C)C=O) amounted to 22 ns.
`O=C1c2cccc3cc4ccccc4c(c23)C(=O)N1Cc1ccccn1` had a fluorescence lifetime (in CCO) of 15.2 ns.
On to `CCc1ccc(/C=C/c2ccc(-c3nnc(-c4ccc(-c5cc6ccccc6s5)cc4)o3)cc2)cc1`, for which the fluorescence lifetime was 0.56 ns (in Cc1ccccc1) and 0.61 ns (in ClC(Cl)Cl).
Take `CCN(CC)c1ccc(/N=N/c2nc3ccc(OC)cc3s2)cc1`: the fluorescence lifetime (in CC#N) turned out to be 2.72 ns and the fluorescence lifetime (in ClCCl) amounted to 3.13 ns.
Regarding `COc1ccc(C2=C3C=c4c(oc5cc6c(cc45)[C@H]4CC[C@]5(C)C(=O)CC[C@H]5[C@@H]4CC6)=[N+]3[B-](F)(F)n3c2cc2c4cc5c(cc4oc23)CC[C@@H]2[C@@H]5CC[C@]3(C)C(=O)CC[C@@H]23)cc1`, the fluorescence lifetime is 3.94 ns (in CCOC(C)=O), 4.04 ns (in CCOCC) and 3.71 ns (in CO).
On to `O=C1c2ccccc2C(=O)C1C1C(=O)c2c3ccccc3cc3cc4ccccc4c1c23` (stereo not given), for which the fluorescence lifetime turned out to be 13.5 ns (in C1CCOC1); 8.4 ns (in CC#N); 12.9 ns (in CCCCCC); 14.1 ns (in Cc1ccccc1); 11 ns (in ClCCl).
